Data from paper PMC8218918, “The Cyr61 Is a Potential Target for Rotundifuran, a Natural Labdane-Type Diterpene from Vitex trifolia L., to Trigger Apoptosis of Cervical Cancer Cells” (Oxidative Medicine and Cellular Longevity, 2021).

Target: T1, Cyr61 (Homo sapiens, UniProt O00622)
T1 construct: gene CCN1; Cyr61 protein (Mammalian, C-Fc)
T1 sequence (O00622 25-381): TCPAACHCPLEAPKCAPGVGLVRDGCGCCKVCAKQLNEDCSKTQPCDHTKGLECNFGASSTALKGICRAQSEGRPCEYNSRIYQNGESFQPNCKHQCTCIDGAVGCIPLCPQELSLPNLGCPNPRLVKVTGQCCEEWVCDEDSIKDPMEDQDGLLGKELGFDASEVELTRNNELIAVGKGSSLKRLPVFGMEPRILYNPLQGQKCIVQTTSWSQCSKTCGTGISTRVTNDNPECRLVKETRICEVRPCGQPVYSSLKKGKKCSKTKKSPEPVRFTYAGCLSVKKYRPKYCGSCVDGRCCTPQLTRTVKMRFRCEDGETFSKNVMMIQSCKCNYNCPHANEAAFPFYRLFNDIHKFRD
Assay: Microscale thermophoresis with RED-NHS labelled recombinant Cyr61; supported by DARTS and CETSA in HeLa cells
Assay type: binding

Kd: 3.8 ± 4.5 µM
SMILES: CC(=O)O[C@@H]1C[C@@H](C)[C@](O)(CCc2ccoc2)[C@@]2(C)CCCC(C)(C)[C@H]12 [RTF, Rotundifuran]
